Results reported in PubChem BioAssay (NCI).
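96-well plates; 48 h exposure; 5 concentrations. Endpoints by linear interpolation between flanking doses. Not reached: highest tested concentration assigned. TGI marks complete inhibition of growth.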

Assays:
Test in all cases: NCI tumour cell line growth inhibition, 48 h
[1] = system: SW-620 colon
[2] = system: NCI-H522 lung
[3] = system: RPMI-8226 leukemia
[4] = system: SN12K1 renal
[5] = system: SN12C renal
[6] = system: SF-295 CNS
[7] = system: NCI-H226 lung
[8] = system: COLO 205 colon
[9] = system: HOP-18 NSCLC
[10] = system: NCI/ADR-RES ovarian
[11] = system: UO-31 renal
[12] = system: M19-MEL melanoma
[13] = system: LOX IMVI melanoma
[14] = system: MALME-3M melanoma
[15] = system: SNB-75 CNS
[16] = system: MCF7 breast
[17] = system: RXF 393 renal
[18] = system: XF 498 CNS
[19] = system: SF-268 CNS
[20] = system: KM12 colon
[21] = system: CCRF-CEM leukemia
[22] = system: IGROV1 ovarian
[23] = system: HCC-2998 colon
[24] = system: NCI-H23 lung
[25] = system: DLD-1 colon
[26] = system: SK-OV-3 ovarian
[27] = system: SF-539 CNS
[28] = system: SNB-19 CNS
[29] = system: UACC-257 melanoma
[30] = system: SNB-78 CNS
[31] = system: OVCAR-8 ovarian
[32] = system: K-562 leukemia
[33] = system: A549 NSCLC
[34] = system: A498 renal
[35] = system: DMS 273 small cell lung
[36] = system: OVCAR-3 ovarian
[37] = system: HOP-92 NSCLC
[38] = system: UACC-62 melanoma
[39] = system: HCT-116 colon
[40] = system: SK-MEL-28 melanoma
[41] = system: SK-MEL-5 melanoma
[42] = system: U251 CNS
[43] = system: CAKI-1 renal
[44] = system: NCI-H460 lung
[45] = system: HCT-15 colon
[46] = system: OVCAR-5 ovarian
[47] = system: MOLT-4 leukemia
[48] = system: P388/ADR leukemia
[49] = system: KM20L2 colon
[50] = system: HOP-62 NSCLC
[51] = system: HT29 colon
[52] = system: EKVX NSCLC
[53] = system: OVCAR-4 ovarian
[54] = system: MDA-MB-435
[55] = system: SR leukemia
[56] = system: 786-0 renal
[57] = system: TK-10 renal
[58] = system: MDA-N
[59] = system: ACHN renal
[60] = system: DMS 114 small cell lung
[61] = system: DU-145 prostate
[62] = system: T-47D breast
[63] = system: HS 578T breast
[64] = system: PC-3 prostate
[65] = system: M14 melanoma
[66] = system: BT-549 breast
[67] = system: RXF-631 renal
[68] = system: HL-60(TB) leukemia
[69] = system: MDA-MB-231 breast
[70] = system: LXFL 529 NSCLC
[71] = system: SK-MEL-2 melanoma

Question: With C[C@H](CN1CC(=O)NC(=O)C1)N1CC(=O)NC(=O)C1 as the compound, how does the TGI [1] read?
Answer: > 84.4 µM

Question: What about the TGI [2] of the same compound?
Answer: > 71.2 µM

Question: And the TGI [3]?
Answer: > 100 µM

Question: And the TGI [4]?
Answer: > 100 µM

Question: And the TGI [5]?
Answer: > 100 µM

Question: What about the TGI [6] of the same compound?
Answer: > 100 µM

Question: What about the TGI [7] of the same compound?
Answer: > 100 µM

Question: And the TGI [8]?
Answer: > 72.8 µM

Question: And the TGI [9]?
Answer: > 100 µM

Question: And the TGI [10]?
Answer: > 100 µM

Question: What about the TGI [11] of the same compound?
Answer: > 44.1 µM

Question: What about the TGI [12] of the same compound?
Answer: > 100 µM

Question: What about the TGI [13] of the same compound?
Answer: > 100 µM

Question: And the TGI [14]?
Answer: > 100 µM

Question: What about the TGI [15] of the same compound?
Answer: > 100 µM

Question: What about the TGI [16] of the same compound?
Answer: > 100 µM

Question: And the TGI [17]?
Answer: > 100 µM

Question: And the TGI [18]?
Answer: > 100 µM

Question: What about the TGI [19] of the same compound?
Answer: > 100 µM

Question: And the TGI [20]?
Answer: > 100 µM

Question: And the TGI [21]?
Answer: > 100 µM

Question: What about the TGI [22] of the same compound?
Answer: > 100 µM

Question: What about the TGI [23] of the same compound?
Answer: > 100 µM

Question: And the TGI [24]?
Answer: > 100 µM

Question: And the TGI [25]?
Answer: > 100 µM

Question: And the TGI [26]?
Answer: > 100 µM

Question: What about the TGI [27] of the same compound?
Answer: > 100 µM

Question: And the TGI [28]?
Answer: > 100 µM

Question: What about the TGI [29] of the same compound?
Answer: > 100 µM

Question: What about the TGI [30] of the same compound?
Answer: > 100 µM

Question: And the TGI [31]?
Answer: > 100 µM

Question: And the TGI [32]?
Answer: > 100 µM

Question: And the TGI [33]?
Answer: > 100 µM

Question: What about the TGI [34] of the same compound?
Answer: > 100 µM

Question: And the TGI [35]?
Answer: > 100 µM

Question: What about the TGI [36] of the same compound?
Answer: > 100 µM

Question: And the TGI [37]?
Answer: > 100 µM

Question: What about the TGI [38] of the same compound?
Answer: > 100 µM

Question: What about the TGI [39] of the same compound?
Answer: > 100 µM

Question: And the TGI [40]?
Answer: > 100 µM

Question: And the TGI [41]?
Answer: > 100 µM

Question: What about the TGI [42] of the same compound?
Answer: > 100 µM

Question: And the TGI [43]?
Answer: > 100 µM

Question: And the TGI [44]?
Answer: > 100 µM

Question: And the TGI [45]?
Answer: > 100 µM

Question: What about the TGI [46] of the same compound?
Answer: > 100 µM

Question: What about the TGI [47] of the same compound?
Answer: > 47.5 µM

Question: And the TGI [48]?
Answer: > 96.4 µM

Question: What about the TGI [49] of the same compound?
Answer: > 100 µM

Question: And the TGI [50]?
Answer: > 100 µM

Question: What about the TGI [51] of the same compound?
Answer: > 100 µM

Question: What about the TGI [52] of the same compound?
Answer: > 100 µM

Question: What about the TGI [53] of the same compound?
Answer: > 100 µM

Question: Which results are given for CC(=O)OC1CC[C@@]2(C)C(CC[C@]3(C)C2CC=C2[C@@H]4CC(C)(C)CCC4(C)CCC23C)[C@@]1(C)C(=O)O (stereo partly specified)?
Answer: TGI [1]: 40.8 µM; TGI [2]: 22.6 µM; TGI [54]: 44.1 µM; TGI [3]: 58.1 µM; TGI [5]: 41.3 µM; TGI [6]: 51.3 µM; TGI [7]: 50.2 µM; TGI [8]: 48.5 µM; TGI [55]: > 78.3 µM; TGI [9]: 43.7 µM; TGI [56]: 45.9 µM; TGI [11]: 35.9 µM; TGI [12]: 54 µM; TGI [57]: 51.8 µM; TGI [13]: 50.1 µM; TGI [14]: 47.1 µM; TGI [15]: 48.9 µM; TGI [16]: 40.1 µM; TGI [17]: 36.9 µM; TGI [18]: 50.9 µM; TGI [19]: 46.7 µM; TGI [58]: 64.8 µM; TGI [20]: 52.3 µM; TGI [59]: 30.7 µM; TGI [21]: > 87.9 µM; TGI [22]: 38.6 µM; TGI [23]: 35.8 µM; TGI [24]: 43.9 µM; TGI [25]: 29.3 µM; TGI [26]: 31.2 µM; TGI [27]: 50.7 µM; TGI [28]: 47.3 µM; TGI [60]: 40.2 µM; TGI [29]: 43.3 µM; TGI [30]: 48.8 µM; TGI [31]: 36.9 µM; TGI [61]: 46 µM; TGI [32]: 61.9 µM; TGI [62]: 44.9 µM; TGI [33]: 33.9 µM; TGI [63]: 45.3 µM; TGI [34]: 39.3 µM; TGI [35]: 55.5 µM; TGI [36]: 37.7 µM; TGI [37]: 49.9 µM; TGI [64]: 23.1 µM; TGI [65]: 46.5 µM; TGI [38]: 36.6 µM; TGI [39]: 46.9 µM; TGI [40]: 46.5 µM; TGI [41]: 47.9 µM; TGI [66]: 50.1 µM; TGI [42]: 32 µM; TGI [43]: 38.5 µM; TGI [67]: 44.7 µM; TGI [44]: 37 µM; TGI [68]: 83.5 µM; TGI [45]: 28.5 µM; TGI [46]: 47.5 µM; TGI [47]: 47.3 µM; TGI [49]: 36.7 µM; TGI [69]: 44.2 µM; TGI [50]: 42 µM; TGI [51]: 38.9 µM; TGI [70]: 32.9 µM; TGI [52]: 39.5 µM; TGI [71]: 38.6 µM; TGI [53]: 40.2 µM
